The NIST ThermoML archive (doi:10.1021/acs.jced.5b00845)

Assay: mn = molality of the nth substance listed, in mol/kg
Conditions: 100 kPa, Liquid, Capillary tube (Ostwald / Ubbelohde) method

O=P([O-])(O)O.[Na+] [sodium dihydrogen phosphate] + O
viscosity [mPa·s]
Conditions	288.15 K	298.15 K	308.15 K	318.15 K
m1 = 0.5	1.427	1.093	0.88	0.723
m1 = 1	1.731	1.332	1.074	0.875
m1 = 1.5	2.139	1.63	1.267	1.051
m1 = 2	2.65	1.987	1.457	1.257

O=C[C@H](O)[C@@H](O)[C@H](O)[C@H](O)CO [D-glucose] + O
viscosity [mPa·s]
Conditions	m1 = 0.05335	m1 = 0.06616	m1 = 0.08424	m1 = 0.1038	m1 = 0.1142	m1 = 0.1323
288.15 K	1.167	1.175	1.185	1.196	1.202	1.211
298.15 K	0.912	0.918	0.924	0.932	0.936	0.943
308.15 K	0.736	0.74	0.744	0.75	0.754	0.759
318.15 K	0.609	0.612	0.616	0.621	0.623	0.628

OC[C@H]1O[C@H](OC[C@H]2O[C@H](O[C@]3(CO)O[C@H](CO)[C@@H](O)[C@@H]3O)[C@H](O)[C@@H](O)[C@@H]2O)[C@H](O)[C@@H](O)[C@H]1O [D-raffinose] + O
viscosity [mPa·s]
Conditions	m1 = 0.0515	m1 = 0.06262	m1 = 0.08002	m1 = 0.09691	m1 = 0.1085	m1 = 0.1133	m1 = 0.1273	m1 = 0.1387
288.15 K	1.227	1.246	1.275	1.303	1.322	1.33	1.353	1.371
298.15 K	0.957	0.971	0.993	1.014	1.028	1.034	1.051	1.065
308.15 K	0.771	0.782	0.799	0.816	0.827	0.831	0.845	0.855
318.15 K	0.637	0.646	0.659	0.672	0.681	0.684	0.695	0.703

N.O=P(O)(O)O [ammonium dihydrogen phosphate] + O
viscosity [mPa·s]
Conditions	288.15 K	298.15 K	308.15 K	318.15 K
m1 = 0.5	1.29	1.014	0.822	0.659
m1 = 1	1.472	1.172	0.942	0.741
m1 = 1.5	1.672	1.332	1.049	0.822
m1 = 2	1.831	1.463	1.161	0.908

O=C[C@H](O)[C@@H](O)[C@H](O[C@@H]1O[C@H](CO)[C@H](O)[C@H](O)[C@H]1O)[C@H](O)CO [4-O-β-D-galactopyranosyl-D-glucose] + O
viscosity [mPa·s]
Conditions	m1 = 0.04915	m1 = 0.0521	m1 = 0.06429	m1 = 0.07299	m1 = 0.09149	m1 = 0.1001	m1 = 0.1211	m1 = 0.1528
288.15 K	1.198	1.202	1.216	1.227	1.249	1.259	1.284	1.321
298.15 K	0.936	0.938	0.949	0.957	0.974	0.982	1	1.028
308.15 K	0.755	0.757	0.766	0.772	0.785	0.791	0.806	0.828
318.15 K	0.625	0.626	0.633	0.638	0.649	0.654	0.665	0.683

CO[C@H]1O[C@H](CO)[C@@H](O)[C@H](O)[C@@H]1O [α-methyl mannopyranoside] + O
viscosity [mPa·s]
Conditions	m1 = 0.05551	m1 = 0.0769	m1 = 0.09681	m1 = 0.1166	m1 = 0.1344	m1 = 0.1466	m1 = 0.1632
288.15 K	1.172	1.185	1.197	1.209	1.22	1.227	1.237
298.15 K	0.916	0.925	0.934	0.943	0.951	0.956	0.964
308.15 K	0.739	0.746	0.753	0.76	0.766	0.77	0.775
318.15 K	0.611	0.617	0.623	0.628	0.633	0.636	0.64

OC[C@H]1O[C@@](CO)(O[C@H]2O[C@H](CO)[C@@H](O)[C@H](O)[C@H]2O)[C@@H](O)[C@@H]1O [D-sucrose] + O
viscosity [mPa·s]
Conditions	m1 = 0.05768	m1 = 0.06994	m1 = 0.07682	m1 = 0.08384	m1 = 0.09221	m1 = 0.1103	m1 = 0.1237	m1 = 0.1437
288.15 K	1.205	1.219	1.227	1.235	1.244	1.265	1.28	1.302
298.15 K	0.941	0.951	0.957	0.963	0.97	0.986	0.997	1.014
308.15 K	0.758	0.766	0.771	0.776	0.781	0.793	0.802	0.815
318.15 K	0.627	0.634	0.637	0.641	0.645	0.655	0.662	0.672

O=C[C@H](O)[C@@H](O)[C@H](O)CO [D-xylose] + O
viscosity [mPa·s]
Conditions	m1 = 0.05317	m1 = 0.06636	m1 = 0.07781	m1 = 0.08585	m1 = 0.1009	m1 = 0.1145
288.15 K	1.159	1.165	1.169	1.173	1.179	1.185
298.15 K	0.906	0.91	0.914	0.917	0.921	0.925
308.15 K	0.732	0.735	0.737	0.739	0.743	0.746
318.15 K	0.606	0.608	0.61	0.612	0.614	0.618

OC[C@H]1OC(O)C[C@@H](O)[C@@H]1O (stereo partly drawn) [2-deoxy-D-glucose] + O
viscosity [mPa·s]
Conditions	m1 = 0.04241	m1 = 0.05017	m1 = 0.05842	m1 = 0.08671	m1 = 0.09745	m1 = 0.1223	m1 = 0.141
288.15 K	1.16	1.164	1.168	1.182	1.188	1.2	1.21
298.15 K	0.907	0.909	0.913	0.923	0.927	0.936	0.943
308.15 K	0.732	0.734	0.736	0.744	0.747	0.754	0.76
318.15 K	0.606	0.608	0.609	0.616	0.618	0.624	0.628

C[C@@H]1O[C@@H](O)[C@H](O)[C@H](O)[C@H]1O [6-deoxy-α-L-mannopyranose] + O
viscosity [mPa·s]
Conditions	m1 = 0.04655	m1 = 0.05637	m1 = 0.08317	m1 = 0.0856	m1 = 0.1109	m1 = 0.1248	m1 = 0.1471
288.15 K	1.165	1.171	1.186	1.187	1.202	1.21	1.222
298.15 K	0.91	0.914	0.925	0.926	0.937	0.943	0.952
308.15 K	0.734	0.737	0.746	0.747	0.755	0.759	0.766
318.15 K	0.608	0.61	0.617	0.618	0.623	0.627	0.632

O=CC[C@H](O)[C@H](O)CO [2-deoxy-D-erythropentose] + O
viscosity [mPa·s]
Conditions	m1 = 0.05709	m1 = 0.07583	m1 = 0.09188	m1 = 0.09812	m1 = 0.1124	m1 = 0.1366	m1 = 0.1466
288.15 K	1.163	1.172	1.179	1.181	1.188	1.198	1.202
298.15 K	0.909	0.915	0.92	0.922	0.927	0.935	0.938
308.15 K	0.734	0.738	0.742	0.744	0.747	0.753	0.755
318.15 K	0.607	0.611	0.614	0.615	0.618	0.623	0.624

OC[C@H]1O[C@@H](O[C@H]2[C@H](O)[C@@H](O)[C@H](O)O[C@@H]2CO)[C@H](O)[C@@H](O)[C@@H]1O [D-cellobiose] + O
viscosity [mPa·s]
Conditions	m1 = 0.0502	m1 = 0.06216	m1 = 0.07229	m1 = 0.08229	m1 = 0.09269	m1 = 0.1031	m1 = 0.1292	m1 = 0.152
288.15 K	1.19	1.202	1.212	1.222	1.233	1.243	1.269	1.291
298.15 K	0.929	0.938	0.946	0.953	0.961	0.969	0.988	1.005
308.15 K	0.749	0.756	0.762	0.768	0.774	0.78	0.795	0.808
318.15 K	0.62	0.625	0.63	0.635	0.64	0.644	0.656	0.666
